Laboratory results reported in patent EP4588470A1, “PHARMACEUTICAL COMPOSITION COMPRISING CURCUMIN AND THE PREPARATION THEREOF” (priority 2024, dated 2025).

Assays:
[1] = in buffer at pH 7; cited from earlier work
[2] = several animal studies; cited from earlier work
[3] = tested on: human circulating tumor cells; test: drug sensitivity testing (CTC assay) on circulating tumor cells cultivated from patient blood; format: cell-based
From the text: Determination of the effect of a pharmaceutical composition according to the present invention, on human circulating tumor cells in blood of nine patients suffering from different types of carcinoma as given in the following Table IV. The composition of the pharmaceutical composition is the same as used in Example 4.
The cells from the collected blood were cultivated in a usual manner with an agent. The agent was either the pharmaceutical composition according to the present invention, or Resveratrol-ACTIF®, which is a combination preparation comprising resveratrol and at least one gingerol, that were added to the cell culture in a concentration of either 50% 100% and 200%.
The same EDTA blood sample used for the verification of the CTC burden was used for drug sensitivity testing.
After enrichment of mononuclear cells by density gradient centrifugation, CD45 depletion and erythrolysis the remaining cells were suspended in cell culture medium and incubated for 4 days with and without the tested compounds. Compounds were tested at three tissue culture doses (TCD), namely 50%, 100% and 200%.. […]
The same experiment was performed with human circulating tumor cells, prepared from a tumor patient by using Resveratrol-ACTIF® and the pharmaceutical composition according to the present invention. […] The results vary from patient to patient and therefore have to be determined individually. […]

SMILES: COc1cc(C=CC(=O)CC(=O)C=Cc2ccc(O)c(OC)c2)ccc1O [curcumin, 1,7-bis(4-hydroxy-3-methoxyphenyl)-1,6-heptadiene-3,5-dione]
- solubility in aqueous solution [1]: less than 0.03 M
- oral curcumin excreted in the faeces [2]: 90%

SMILES: CCC(=O)C(CC(C)N(C)C)(c1ccccc1)c1ccccc1 (stereo not shown) [Methadon]
- antitumoral capacity among the tested chemotherapeutics [3]: highest antitumoral capacity

SMILES: N.N.O=C([O-])C1(C(=O)[O-])CCC1.[Pt+2] [Carboplatin]
- response of tumor cell-inhibition ([3]; patient 7, Figure 8, already with the 50% TCD (7,9 µg/ml)): maximal response has been reached
